Common to all, as to type: in vivo
The test system of one test is dog heart in situ. Nature of the test: Antianginal activity: aortic-coronary sinus difference in oxygen (myocardial oxygen consumption) in anesthetized dogs. The following applies: 1 mg/kg i.v. The method, then:
Angina pectoris is a clinical condition of hypoxia that results from an imbalance in myocardial oxygen supply and demand. A drug reducing oxygen demand is useful in the treatment of angina pectoris, as has been the case with nitroglycerin and the beta-adrenergic blocking agents like propranolol (J. R. Paratt, Advan. Drug Res. 9:103-134, 1974). Accordingly,the antianginal activity of 2-substituted indoloquinolizines was evaluated by assessing their capacity to reduce oxygen consumption by the dog heart in situ. This method allows measurement of the difference in oxygen content of the arterial and venous blood.
Mongrel dogs were anesthetized with pentobarbital and cannulas inserted in the trachea and in a femoral vein for artificial respiration with room air and for injection of test compounds, respectively. Heparin was administered intravenously to prevent blood clotting. The chest was opened at the sternal midline and an additional cannula introduced in the coronary sinus. Samples of blood were obtained from the coronary sinus cannula and from the thoracic aorta by direct puncture of the vessel. Partial pressure of oxygen in the samples was determined with a blood gas analyzer. Test compounds were injected intravenously at a dose of 1 mg/kg; oxygen measurements were made before administration and at 1, 5, 10, 20, 30, 40, 50 and 60 min after administration. One animal was used per test compound. As the standard of comparison, nitroglycerin was administered to a test animal and measurements were made in a similar manner.
Differences between partial pressure values in arterial and venous blood samples were calculated for each measurement. Since coronary sinus blood is representative of the venous effluent from the heart, these differences reflect the consumption of oxygen by the myocardium. Thus, the decrease in arteriovenous oxygen difference produced by the compounds by this invention indicates a reduction in myocardial oxygen consumption.

The next test relates to Systolic Blood Pressure. The experiment in a line: Antihypertensive activity: indirect systolic blood pressure in renal hypertensive rats. The following applies: rat, 31 mg/kg p.o., * in table = statistically significant change from control. The method, then: Rats were made hypertensive by applying a figure of eight ligature to one kidney and removing the contralateral kidney two weeks later. At least four weeks after the second operation the animals were subjected to indirect systolic blood pressure measurements with an occluding cuff and pulse sensor system applied to the tail. Pressure measurements were made before and 1,2,4,6 and 8 hours after oral administration of the test compounds at a dose of 31 mg/kg. Each compound was tested in 5 or 10 rats. Statistical significance of differences between control and post treatment values was determined by Wilcoxon's signed rank test (F. Wilcoxon and R. A. Wilcox, Some Rapid Approximate Statistical Procedures, Lederle Laboratories, Pearl River, 1964).

Test [1] relates to ventricular arrhythmia produced by chloroform. The experiment in a line: Antiarrhythmic activity: protection from chloroform-induced ventricular arrhythmia in mice (Lawson model). Conditions: mouse, 31 mg/kg i.p., groups of 5 mice. The method, then: The antiarrhythmic activity of the compounds of this invention was determined in the experimental model described by J. W. Lawson (J. Pharmacol. Exper. Therap. 160:22-31, 1968). Test compounds were administered to groups of 5 mice at an intraperitoneal dose of 31 mg/kg. Ten minutes after injection each mouse was placed in a covered 300 ml glass beaker which contained cotton saturated with chloroform. The animal was observed closely and removed from the beaker immediately after respiratory arrest. The heart was quickly exposed by making an incision through the abdomen, diaphragm, thorax and pericardium for visual inspection of ventricular rate and rhythm. Ventricular contractions were counted for 30 seconds and animals with a rate not exceeding 100 beats per 30 seconds were considered protected from the ventricular arrhythmia produced by chloroform. Compounds protecting at least 3 of the 5 mice were subsequently tested at various doses and the results obtained were used to calculate the mean effective doses (ED50) and 95% confidence limits after the method of Litchfield and Wilcoxon (J. Pharmacol. Exper. Therap. 96:99-113, 1949). Table A presents the results obtained in the antiarrhythmic study.

Molecules are shown by their SMILES. Where a name gives a salt, the structure may show the parent alone.

Regarding `CC(=O)Nc1cccc(NC2CCN3CCc4c(n(Cc5ccccc5)c5ccccc45)C3C2)c1.O=C(O)C(=O)O` (stereo not drawn) [TR3716, 2-(3-acetamidoanilino)-12-benzyl-1,2,3,4,6,7,12,12b-octahydroindolo[2,3-a]quinolizine oxalate], in the test on dog heart in situ, the “Arterio-Venous Difference in Oxygen Partial Pressure at 1 min” value is 22 mmHg, the “Arterio-Venous Difference in Oxygen Partial Pressure at 5 min” value was found to be 27 mmHg, the “Arterio-Venous Difference in Oxygen Partial Pressure at 10 min” value turned out to be 29 mmHg and the “Arterio-Venous Difference in Oxygen Partial Pressure at 20 min” value worked out at 28 mmHg. In addition, in the test with dog heart in situ, the “Arterio-Venous Difference in Oxygen Partial Pressure at 30 min” value worked out at 27 mmHg, the “Arterio-Venous Difference in Oxygen Partial Pressure at 40 min” value was found to be 28 mmHg, the “Arterio-Venous Difference in Oxygen Partial Pressure at 50 min” value is listed as 28 mmHg and the “Arterio-Venous Difference in Oxygen Partial Pressure at 60 min” value worked out at 28 mmHg. In addition, in the test with Systolic Blood Pressure, the “Change in Systolic Blood Pressure at 1 hr” value is reported as -49 mmHg, the “Change in Systolic Blood Pressure at 2 hr” value is recorded as -42 mmHg, the “Change in Systolic Blood Pressure at 6 hr” value is reported as -17 mmHg and the “Change in Systolic Blood Pressure at 8 hr” value was -6 mmHg. In addition, in test [1], the “Antiarrhythmic activity, ED50 symbol (failed screening dose)” value was “* (Did not protect 3 of 5 mice and thus was not tested further.)”.

Regarding `NS(=O)(=O)c1ccc(NC2CCN3CCc4c(n(Cc5ccccc5)c5ccccc45)C3C2)cc1` (stereo not drawn) [TR3718, 12-benzyl-1,2,3,4,6,7,12,12b-octahydro-(4-sulfonamidoanilino)-indolo[2,3-a]quinolizine hydrochloride], in the test on dog heart in situ, the “Arterio-Venous Difference in Oxygen Partial Pressure at 1 min” value amounted to 20 mmHg, the “Arterio-Venous Difference in Oxygen Partial Pressure at 5 min” value is listed as 17 mmHg, the “Arterio-Venous Difference in Oxygen Partial Pressure at 10 min” value came to 17 mmHg and the “Arterio-Venous Difference in Oxygen Partial Pressure at 20 min” value came to 16 mmHg. Moreover, in the test on dog heart in situ, the “Arterio-Venous Difference in Oxygen Partial Pressure at 30 min” value was determined as 16 mmHg, the “Arterio-Venous Difference in Oxygen Partial Pressure at 40 min” value is 16 mmHg, the “Arterio-Venous Difference in Oxygen Partial Pressure at 50 min” value is listed as 18 mmHg and the “Arterio-Venous Difference in Oxygen Partial Pressure at 60 min” value turned out to be 18 mmHg. For the same molecule, in the test on Systolic Blood Pressure, the “Change in Systolic Blood Pressure at 1 hr” value is recorded as -5 mmHg, the “Change in Systolic Blood Pressure at 2 hr” value is given as -16 mmHg, the “Change in Systolic Blood Pressure at 6 hr” value is reported as -5 mmHg and the “Change in Systolic Blood Pressure at 8 hr” value is recorded as “+5 mmHg”. For the same molecule, the “Change in Systolic Blood Pressure at 4 hr” value in the test on Systolic Blood Pressure (4 hr) is listed as -21 mmHg. Moreover, the “Antiarrhythmic activity, ED50 symbol (failed screening dose)” value in test [1] is “* (Did not protect 3 of 5 mice and thus was not tested further.)”.

For the origin of these results see US4181657A, “2-Aminooctahydroindolo[2,3-a]quinolizines useful in treating cardiovascular disorders” (Miles Laboratories, Inc., priority 1978, dated 1980).
